In publication PMC6006285, “Specific stereochemistry of OP-1074 disrupts estrogen receptor alpha helix 12 and confers pure antiestrogenic activity” (Nature Communications, 2018):

Columns and labels:
[1] = tested on: uterus of ovariectomized BALB/c mice; test: Uterine wet weight (uterotrophic assay) in ovariectomized BALB/c mice; format: in vivo, mouse; details: 100 mg/kg oral gavage daily for 3 days
Excerpt: (§1) Shown is a representative figure analyzed and presented as above.
To confirm that OP-1074 lacks agonist activity in the uterus, we tested it in ovariectomized BALB/c mice in a uterotrophic assay. […] Thus, OP-1074 is a pure antiestrogen in the mouse uterus.
Animals were euthanized and uteri dissected and weighed.

[2] = tested on: AP activity in Ishikawa uterine cells; test: Alkaline phosphatase (AP) assay, agonist mode (absence of E2); format: cell-based, human
Description: Our primary screen to distinguish pure antiestrogens from SERMs was induction of alkaline phosphatase (AP) activity in Ishikawa uterine cells. […] The reference SERM used in our screen was endoxifen (N-desmethyl-4-hydroxytamoxifen), the most abundant bioactive metabolite of tamoxifen.
as §1
At least 4 h later cells were treated with antiestrogens and media was diluted to 2.5% stripped FBS. Cells were incubated for 3 days, media removed and plates frozen at −80 °C. Thawed plates were incubated with a chromogenic substrate of AP, p-nitrophenyl phosphate (ThermoFisher Scientific, #36721), for 40–60 min at 40 °C, and absorbance read at 405 nm on the Varioskan Lux multimodal plate reader (ThermoFisher Scientific, #VLBL00D0).

[3] = biological target: T1, glucocorticoid receptor (GR) (Homo sapiens, UniProt P04150); test: PRE3X-TATA-Luc reporter in HeLa cells transfected with GR; format: cell-based; details: alone or + 32 nM Dex, 22 h
T1 construct: HeLa cells were transfected as above but also with plasmids for full length wild; expressed in transfected cells; host or cells: HeLa
T1 sequence (P04150 1-777): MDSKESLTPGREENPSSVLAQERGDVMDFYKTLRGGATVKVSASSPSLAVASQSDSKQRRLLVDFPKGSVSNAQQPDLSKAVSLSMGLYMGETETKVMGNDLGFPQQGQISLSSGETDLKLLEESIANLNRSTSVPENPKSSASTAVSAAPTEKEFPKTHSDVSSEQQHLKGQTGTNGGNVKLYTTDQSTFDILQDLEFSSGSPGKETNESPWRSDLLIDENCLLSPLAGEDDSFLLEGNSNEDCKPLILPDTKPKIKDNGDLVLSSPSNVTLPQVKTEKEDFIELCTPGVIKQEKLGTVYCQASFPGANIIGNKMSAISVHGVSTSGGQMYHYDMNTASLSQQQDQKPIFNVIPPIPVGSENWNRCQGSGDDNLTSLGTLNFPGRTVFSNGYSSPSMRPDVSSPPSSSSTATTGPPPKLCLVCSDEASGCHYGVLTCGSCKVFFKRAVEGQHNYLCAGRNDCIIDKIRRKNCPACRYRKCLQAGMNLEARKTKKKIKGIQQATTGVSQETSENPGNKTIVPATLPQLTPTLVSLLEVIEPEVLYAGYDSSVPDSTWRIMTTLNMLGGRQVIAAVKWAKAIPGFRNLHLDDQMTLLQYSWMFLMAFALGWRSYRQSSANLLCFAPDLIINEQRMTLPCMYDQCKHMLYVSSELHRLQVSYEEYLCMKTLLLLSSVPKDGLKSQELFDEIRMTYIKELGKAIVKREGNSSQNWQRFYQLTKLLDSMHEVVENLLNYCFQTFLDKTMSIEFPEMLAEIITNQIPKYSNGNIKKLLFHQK
Description: representative experiment. […]
receptor (AR, (B)), glucocorticoid receptor (GR, (C)), and the B-isoform of the progesterone receptor (PR-B, (D)). HeLa cells were transfected with the designated wild type receptor along with reporter gene PRE3X-TATA-Luc, which is promiscuously activated with known agonists specific for each receptor: R1881 for AR, dexamethasone (Dex) for GR, and medroxyprogesterone acetate (MPA) for PR-B. Each receptor was also dosed with one concentration of known antagonist for each receptor: 32 nM bicalutamide for AR, and 500 nM RU486 for GR and PR. Transfected cells were treated with the designated ligands for 22 hours and luciferase activity assayed. Shown are representative experiments, independently performed at least 3 times. Note that curves for agonists for each receptor were performed in separate experiments. Shown are means with SEM, normalized to percent of 32 nM R1881 for AR, 32 nM Dex for GR, and 0.5 µM MPA for PR-B (except with MPA alone, which was normalized to […]
either ERα or ERβ, and 85 ng ERE-3x-Luc, containing 3 copies of estrogen-response element (ERE) cloned into pGL4.23 luciferase reporter gene containing a minimal TATA promoter […]
hours (1.25% total final charcoal dextran stripped FBS). Bright Glo luciferase reagent (Promega) […]

CC1=C(c2ccc(O)cc2)[C@H](c2ccc(OCCN3CC[C@@H](C)C3)cc2)Oc2cc(O)ccc21 [OP-1074]
Uterine wet weight, agonist mode ([1]; absence of E2, OP-1074 as mixture of active and inactive diastereomers): did not increase uterine wet weight | Uterine wet weight, antagonist mode ([1]; co-treated with E2 subcutaneously): not significantly different from fulvestrant | Maximal AP activity in agonist mode relative to E2 control ([2]; 3 days, absence of E2, normalized to 500 pM E2, representative experiment (Fig. 2a)): 8% | Induction of AP activity (% E2) ([2]; Maximum AP activity observed relative to positive control, 500 pM E2, means of n independent experiments ±s.d.): 10% ± 4.4 (n = 29) % E2 | Agonist and antagonist activity on GR [3]: lacks agonist and antagonist activity
